In patent US20250213603A1, “PHARMACEUTICAL COMPOSITION FOR TREATING CANCER” (SAGA UNIVERSITY, priority 2021, published 2025):

Key:
KBM5-STI = experiment: Cell proliferation inhibition, modified MTT assay (Cell Counting Kit-8); assay type: cell-based; details: incubation for 72 hours, average±SD of 3 independent experiments
Method: (§1) The proliferation inhibitory action in leukemia cell lines was evaluated using a modified dimethyl-thiazole-diphenyl-tetrazolium (MTT) assay as follows.
(§2) The hepatocyte line and leukemia cell lines (K562, BV173, Ba/F3 p190, Ba/F3 p210, MYL-R, K562-IMR, and KBM5-STI) were used in this example. The FA-HP-β-CyD synthesized in Example 1 was used.
(§3) The cell viability was evaluated using the trypan blue dye exclusion method. Cell proliferation was evaluated using a Cell Counting Kit-8 (Dojindo, Japan), which is an MTT assay. 2×10^4 of each cell was seeded with 100 μL RPMI1640 medium (Sigma-Aldrich, USA) per well to a flatbottom 96-well plate (Greiner Labortechnik, Hamburg, Germany), and incubation for 72 hours was carried out with exposure to HP-β-CyD and FA-HP-β-CyD at different concentrations (0 mM (control: CT), 0.05 mM, 0.1 mM, 0.25 mM, 0.5 mM, and 1 mM).

hepatocyte = experiment: as above; assay type: cell-based; details: hepatocyte line, incubation for 72 hours, average±SD of 3 independent experiments
Method: as §1, §2, §3

Ba/F3 P190 = experiment: as above; assay type: cell-based
Method: as §1, §2, §3

Ba/F3 P210 = experiment: as above; assay type: cell-based; details: Ba/F3 P210, incubation for 72 hours, average±SD of 3 independent experiments
Method: as §1, §2, §3

K562-IMR = experiment: as above; assay type: cell-based; details: incubation for 72 hours, average±SD of 3 independent experiments
Method: as §1, §2, §3

MYL-R = experiment: as above; assay type: cell-based; details: incubation for 72 hours, average±SD of 3 independent experiments
Method: as §1, §2, §3

BV173 [1] = experiment: as above; assay type: cell-based
Method: as §1, §2, §3

K562 [2] = experiment: as above; assay type: cell-based
Method: as §1, §2, §3

BV173 [3] = experiment: Effect of autophagy inhibition on the cell proliferation inhibitory effect; assay type: cell-based; details: 5 mM FA-HP-β-CyD or 15 mM HP-β-CyD, chloroquine, bafilomycin A1 or LY294002 (FIG. 8)
Method: (§4) The effect of autophagy inhibition on the cell proliferation inhibitory effect was evaluated as follows.
(§5) Leukemia cell lines (K562 and BV173) were used in this example. The FA-HP-β-CyD synthesized in Example 1 was used.
(§6) 2×10^5 of each cell with 100 μL RPMI1640 medium (Sigma-Aldrich, USA) was seeded per well to a flatbottom 96-well plate (Greiner Labortechnik, Hamburg, Germany), and treatment was carried out for 2 hours at 37° C. with 5 mM FA-HP-β-CyD and 15 mM HP-β-CyD. Pretreatment was then carried out for 24 hours with the autophagy inhibitors chloroquine (20 μM) (FUJIFILM Wako Pure Chemical Corporation), bafilomycin A1 (1 nM) (Funakoshi), or LY294002 (50 μM) (FUJIFILM Wako Pure Chemical Corporation). Cell proliferation was then evaluated using a Cell Counting Kit-8 (Dojindo, Japan), which is a modified dimethyl-thiazole-diphenyl-tetrazolium (MTT) assay.
(§7) Here, the “CT” in FIG. 8 was evaluated as follows. Thus, 2×10^5 of each cell with 100 μL RPMI1640 medium was seeded per well to a flatbottom 96-well plate and culture was carried out for 2 hours+24 hours as in the exposure groups, but without exposure to the agent or autophagy inhibitor, and this was used as the CT. This CT was compared with the exposure groups.
(§8) Significant difference was determined as follows. That is, the data were analyzed using a two-sided Student's t-test without a comparison table. A value of P<0.05 was considered to indicate a significant difference.

K562 [4] = experiment: as above; assay type: cell-based; details: 5 mM FA-HP-β-CyD or 15 mM HP-β-CyD, chloroquine, bafilomycin A1 or LY294002 (FIG. 8)
Method: as §4, §5, §6, §7, §8

A549 = experiment: Proliferation inhibitory action on low folate receptor-expressing cells (MTT assay); assay type: cell-based, human; details: A549, 2.5-10 mM, 72 hours (FIG. 3)
Method: The proliferation inhibitory action on A549, a low folate receptor-expressing cell, was evaluated as follows.
A human non-small cell lung cancer cell line (A549) was used in this example. The FA-HP-β-CyD synthesized in Example 1 was used.
For cell proliferation, 2×10^4 cells of the […] were seeded with 100 μL DMEM medium (Sigma-Aldrich, USA) per well to a flatbottom 96-well plate (Greiner Labortechnik, Hamburg, Germany), and incubation for 72 hours was carried out with exposure to HP-β-CyD and FA-HP-β-CyD at different concentrations (0 mM (control: CT), 2.5 mM, 5 mM, 7.5 mM, and 10 mM). Evaluation was then carried out using a dimethyl-thiazole-diphenyl-tetrazolium (MTT) assay (Nacalai Tesque, Japan).

[5] = tested on: BV173 cells (leukemia cells); experiment: Ventricular invasion mouse model (leukemic invasion of the central nervous system); assay type: in vivo, BRJ mice
Method: Here, the effect of HP-β-CyD and FA-HP-β-CyD on leukemic central nervous system invasion was test by constructing a mouse model.
BRJ mice (female) were anesthetized (intraperitoneal administration (IP) of 100 μL of a triple anesthetic of medetomidine hydrochloride (0.75 mg/kg), mitazolam (4 mg/kg), and butorphanol tartrate (5 mg/kg)), and intrathecal transplantation was carried out, through the right coronal suture at a point 1 mm to the right of the center line defined by the sagittal suture, with a polyethylene stop tube-equipped microsyringe designed to inject BV173 cells (leukemia cells) precisely to a depth of 3 mm using a Hamilton syringe LT type needle tip style pst-3 and 25 gauge.
The FA-HP-β-CyD synthesized in Example 1 was used in this example.
The doses were set at 30 mg/kg for HP-β-CyD and 3 mg/kg for FA-HP-β-CyD by referring to the dose of HP-β-CyD for a mouse model of the hereditary lipid storage disease Niemann-Pick disease type C (NPC) (Int. J. Mol. Sci. 2021, 22, 452. https://doi.org/10.3390/ijms22010452).
as §8

## folic acid-appended hydroxypropyl-β-cyclodextrin [FA-HP-β-CyD]
KBM5-STI
  IC50: 800 ± 120 µM
hepatocyte
  IC50: 20100 ± 4500 µM
Ba/F3 P190; Ba/F3 P190, incubation for 72 hours, average±SD of 3 independent experiments
  IC50: 910 ± 160 µM
Ba/F3 P190; Ba/F3 p190, 0.05-1 mM, 72 hours (FIG. 2)
  cell proliferation: inhibited in a dose-dependent manner
Ba/F3 P210
  IC50: 960 ± 17 µM
K562-IMR
  IC50: 700 ± 55 µM
MYL-R
  IC50: 930 ± 110 µM
BV173 [1]; BV173, 0.05-1 mM, 72 hours (FIG. 2)
  cell proliferation: inhibited in a dose-dependent manner
BV173 [1]; BV173, incubation for 72 hours, average±SD of 3 independent experiments
  IC50: 170 ± 64 µM
K562 [2]; K562, 0.05-1 mM, 72 hours (FIG. 2)
  cell proliferation: inhibited in a dose-dependent manner
K562 [2]; K562, incubation for 72 hours, average±SD of 3 independent experiments
  IC50: 690 ± 190 µM
BV173 [3]
  cell proliferation inhibitory capability on addition of an autophagy inhibitor: reduced by the addition of an autophagy inhibitor
K562 [4]
  cell proliferation inhibitory capability on addition of an autophagy inhibitor: reduced by the addition of an autophagy inhibitor
A549
  cytotoxic / antitumor activity on A549 low folate receptor-expressing cells: does not exhibit an antitumor activity
[5]; FIG. 14 compared with FIG. 13, HP-β-CyD 30 mg/kg, FA-HP-β-CyD 3 mg/kg
  survival in two-time administration model compared with one-time administration model: survival was extended by one day
[5]; administered two times, first and second week after transplantation, FA-HP-β-CyD 3 mg/kg (FIG. 14)
  survival in comparison to the vehicle group and HP-β-CyD group: extension of survival was confirmed
[5]; administered two times, first and second week, HP-β-CyD 30 mg/kg, FA-HP-β-CyD 3 mg/kg (FIG. 14)
  P versus the vehicle group (survival): 0.0472
[5]; single administration in the second week after ventricular transplantation, FA-HP-β-CyD 3 mg/kg (FIG. 13)
  survival in comparison to the vehicle group and HP-β-CyD group: extension of survival was confirmed
[5]; single administration in the second week, HP-β-CyD 30 mg/kg, FA-HP-β-CyD 3 mg/kg (FIG. 13)
  P versus the vehicle group (survival): 0.0111
